Measured values published in patent US20250333397A1 (REMIX THERAPEUTICS INC., priority 2021, published 2025).
pIC50: −log10 of the molar value. Read-outs that look alike come from different tables or passages of the source.

Assays:
Format in all cases: cell-based, human
MYB mRNA = experiment: RT-qPCR splicing assay, MYB canonical (CJ) and alternative (AJ) junction mRNA; conditions: Homo sapiens; for AC50: read-out: MYB AJ (AC50, increase in AJ mRNA)
Method: (§1) Compounds described herein were used to modulate RNA transcript abundance in cells. The expression of a target mRNA was measured by detecting the formation of an exon-exon junction in the canonical transcript (CJ). A compound mediated exon-inclusion event was detected by observing an increase in formation of a new junction with an alternative exon (AJ). Real-time qPCR assays were used to detect these splicing switches and interrogate the potency of various compounds towards different target genes. A high-throughput real time quantitative PCR (RT-qPCR) assay was developed to measure these two isoforms of the mRNA (CJ and AJ) for exemplary genes, such as HTT, SMN2, and MYB, together with a control housekeeping gene, GAPDH or GUSB or PPIA, used for normalization. Briefly, the A673 or K562 cell line was treated with various compounds described herein (e.g., compounds of Formula (I), (II), (III), (IV)). After treatment, the levels of the HTT, MYB, or SMN2 mRNA targets were determined from each sample of cell lysate by cDNA synthesis followed by qPCR.
(§2) The A673 cell line was cultured in DMEM with 10% FBS. Cells were diluted with full growth media and plated in a 96-well plate (15,000 cells in 100ul media per well). The plate was incubated at 37° C. with 5% CO2 for 24 hours to allow cells to adhere. An 11-point 3-fold serial dilution of the compounds was made in DMSO then diluted in media in an intermediate plate. Compounds were transferred from the intermediate plate to the cell plate with the top dose at a final concentration of 10 uM in the well. Final DMSO concentration was kept at or below 0.25%. The cell plate was returned to the incubator at 37° C. with 5% CO2 for an additional 24 hours.
(§3) The K562 cell line was cultured in IMDM with 10% FBS. For K562, cells were diluted with full growth media and plated in either a 96-well plate (50,000 cells in 50 uL media per well) or a 384-well plate (8,000-40,000 cells in 45 uL media per well). An 11-point 3-fold serial dilution of the compounds were made in DMSO then diluted in media in an intermediate plate.
(§4) Compound was transferred from the intermediate plate to the cell plate with the top dose at a final concentration of 10 uM in the well. Final DMSO concentration was kept at or below 0.25%.
(§5) Final volume was 100 uL for 96-well plate and 50 uL for 384-well plate. The cell plate was then placed in an incubator at 37° C. with 5% CO2 for 24 hours.
(§6) The cells were then gently washed with 50 uL-100 uL cold PBS before proceeding to addition of lysis buffer. 30 uL-50 μL of room temperature lysis buffer with DNAse I (and optionally RNAsin) was added to each well. Cells were shaken/mixed thoroughly at room temperature for 5-10 minutes for lysis to take place and then 3 uL-5 μL of room temperature stop solution was added and wells were shaken/mixed again. After 2-5 minutes, the cell lysate plate was transferred to ice for RT-qPCR reaction setup. The lysates could also be frozen at −80° C. for later use.
(§7) In some cases, a direct lysis buffer was used. An appropriate volume of 3× lysis buffer (10 mM Tris, 150 mM NaCl, 1.5%-2.5% Igepal and 0.1-1 U/uL RNAsin, pH 7.4) was directly added to either K562 or A673 cells in media and mixed by pipetting 3 times. The plates were then incubated at room temperature with shaking/rocking for 20-50 minutes to allow for lysis to take place. After this time, the cell lysate plate was transferred to ice to set up for the RT-qPCR reactions. The lysates could also be frozen at −80° C. for later use.
(§8) To set up 10 uL RT-qPCR reactions, cell lysates were transferred to 384-well qPCR plates containing the master mix according to the table below. The plates were sealed, gently vortexed, and spun down before the run. The volumes were adjusted accordingly in some instances where the reaction was carried in 20 μL. The table below summarizes the components of the RT-qPCR reactions: […]

HTT mRNA = experiment: RT-qPCR splicing assay, HTT canonical (CJ) and alternative (AJ) junction mRNA; conditions: Homo sapiens; for AC50: read-out: HTT AJ (AC50, increase in AJ mRNA)
Method: as §1, §2, §3, §4, §5, §6, §7, §8

SMN2 mRNA = experiment: RT-qPCR splicing assay panel, SMN2 canonical junction (CJ) mRNA; conditions: Homo sapiens
Method: as §1, §2, §3, §4, §5, §6, §7, §8

Target C mRNA = experiment: RT-qPCR splicing assay panel, Target C canonical junction (CJ) mRNA; conditions: Homo sapiens
Method: as §1, §2, §3, §4, §5, §6, §7, §8

[1] = 24 h, Table 3A, A673 or K562 cells, 24 h treatment
[2] = 24 h, Table 3A, A673 or K562 cells, 24 h treatment, read-out: MYB CJ (IC50, decrease in CJ mRNA)
[3] = canonical junction (CJ) mRNA, RT-qPCR panel, Table 4A, read-out: MYB, decrease in CJ mRNA levels, IC50
[4] = 24 h, Table 3A, A673 or K562 cells, 24 h treatment, read-out: HTT CJ (IC50, decrease in CJ mRNA)
[5] = canonical junction (CJ) mRNA, RT-qPCR panel, Table 4A, read-out: HTT, decrease in CJ mRNA levels, IC50
[6] = canonical junction (CJ) mRNA, RT-qPCR panel, Table 4A, read-out: SMN2, decrease in CJ mRNA levels, IC50
[7] = canonical junction (CJ) mRNA, RT-qPCR panel, Table 4A, read-out: Target C, decrease in CJ mRNA levels, IC50
[8] = 24 h, Table 3B, A673 or K562 cells, 24 h treatment

Structure (SMILES)	AC50 (MYB mRNA; [1])	pIC50 (MYB mRNA; [2])	pIC50 (MYB mRNA; [3])	AC50 (HTT mRNA; [1])	pIC50 (HTT mRNA; [4])	pIC50 (HTT mRNA; [5])	pIC50 (SMN2 mRNA; [6])	pIC50 (Target C mRNA; [7])	AC50 (MYB mRNA; [8])	pIC50 (MYB mRNA; 24 h, Table 3B, A673 or K562 cells, 24 h treatment, read-out: MYB CJ (IC50, decrease in CJ mRNA))	pIC50 (MYB mRNA; Table 4B, gene panel, read-out: MYB (IC50, decrease in CJ mRNA levels))	AC50 (HTT mRNA; [8])	pIC50 (HTT mRNA; 24 h, Table 3B, A673 or K562 cells, 24 h treatment, read-out: HTT CJ (IC50, decrease in CJ mRNA))	pIC50 (HTT mRNA; Table 4B, gene panel, read-out: HTT (IC50, decrease in CJ mRNA levels))	pIC50 (SMN2 mRNA; Table 4B, gene panel, read-out: SMN2 (IC50, decrease in CJ mRNA levels))	pIC50 (Target C mRNA; Table 4B, gene panel, read-out: Target C (IC50, decrease in CJ mRNA levels))
Cc1ccc(-c2ccc(-c3ccc(N4CCC(NC5CCC5)C4)nn3)c(O)c2)o1 (stereo not drawn) [Compound 325, 2-{6-[3-(cyclobutylamino)pyrrolidin-1-yl]pyridazin-3-yl}-5-(5-methylfuran-2-yl)phenol]	1000 to 10000 nM	5.00 to 6.00	5.00 to 6.00	1000 to 10000 nM	5.00 to 6.00	5.00 to 6.00	5.00 to 6.00	5.00 to 6.00								
CC(C)(C)NC1CCN(c2ccc(-c3cc4ccncc4cc3O)nn2)C1 (stereo not drawn) [Compound 845]									100 to 1000 nM	6.00 to 7.00	6.00 to 7.00	< 100 nM	> 7.00	> 7.00	> 7.00	6.00 to 7.00
Cn1cc2cc(-c3ccc(-c4ccc(N5CCC(NC6CCC6)C5)nn4)c(O)c3)cc(F)c2n1 (stereo not drawn) [Compound 328]	100 to 1000 nM	6.00 to 7.00	6.00 to 7.00	< 100 nM	> 7.00	> 7.00	> 7.00	6.00 to 7.00								
Cc1ncc(-c2cc(O)c(-c3ccc(N4CC[C@@H](NC(C)(C)C)C4)nn3)cc2F)s1 [Compound 338, 2-{6-[(3R)-3-(tert-butylamino)pyrrolidin-1-yl]pyridazin-3-yl}-4-fluoro-5-(2-methyl-1,3-thiazol-5-yl) phenol]	< 100 nM	> 7.00	> 7.00	< 100 nM	> 7.00	> 7.00	> 7.00	> 7.00								
COc1cc(-c2ccc(-c3ccc(N4CCC(NC5CC6(CCC6)C5)C4)nn3)c(O)c2)cnn1 (stereo not drawn) [Compound 353, 5-(6-methoxypyridazin-4-yl)-2-[6-(3-{spiro[3.3]heptan-2-ylamino}pyrrolidin-1-yl)pyridazin-3-yl]phenol]	1000 to 10000 nM	5.00 to 6.00	5.00 to 6.00	100 to 1000 nM	6.00 to 7.00	6.00 to 7.00	> 7.00	6.00 to 7.00								
Cc1ncc(-c2cc(O)c(-c3ccc(N4CC[C@@H](N(C)C5CCC5)C4)nn3)cc2F)s1 [Compound 269]	100 to 1000 nM	> 7.00	> 7.00	< 100 nM	> 7.00	> 7.00	> 7.00	> 7.00								
Cc1ncc(-c2ccc(-c3ccc(N4CC[C@](C)(NCC5CC5)C4)nn3)c(O)c2)s1 (single isomer, unassigned) [Compound 438]	100 to 1000 nM	6.00 to 7.00	6.00 to 7.00	100 to 1000 nM	> 7.00	> 7.00	> 7.00	6.00 to 7.00								
Oc1cc(-c2ccc(-c3ccc(N4CC[C@@H](NC5CCC5)C4)nn3)c(O)c2)cnn1 [Compound 419, 5-(4-{6-[(3R)-3-(cyclobutylamino)pyrrolidin-1-yl]pyridazin-3-yl}-3-hydroxyphenyl)pyridazin-3-ol]	> 10000 nM	5.00 to 6.00	5.00 to 6.00	1000 to 10000 nM	6.00 to 7.00	6.00 to 7.00	6.00 to 7.00	5.00 to 6.00								
Cc1ncc(-c2cc(O)c(-c3ccc(N4CCC(NC5CCOCC5)C4)nn3)cc2F)s1 (stereo not drawn) [Compound 354, 4-fluoro-5-(2-methyl-1,3-thiazol-5-yl)-2-{6-[3-(oxan-4-ylamino)pyrrolidin-1-yl]pyridazin-3-yl}phenol]	< 100 nM	6.00 to 7.00	6.00 to 7.00	< 100 nM	> 7.00	> 7.00	> 7.00	> 7.00								
COc1cncc(-c2ccc(-c3ccc(N4CC[C@H](NC5CCC5)C4)nn3)c(O)c2)c1 [Compound 304]	1000 to 10000 nM	5.00 to 6.00	5.00 to 6.00	1000 to 10000 nM	5.00 to 6.00	5.00 to 6.00	5.00 to 6.00	5.00 to 6.00								
Cc1nsc(-c2cc(O)c(-c3ccc(N4CC[C@@H](NCC5CC5)C4)nn3)cc2F)n1 [Compound 431]	100 to 1000 nM	6.00 to 7.00	6.00 to 7.00	100 to 1000 nM	6.00 to 7.00	6.00 to 7.00	> 7.00	6.00 to 7.00								
COc1cc(-c2cc(O)c(-c3ccc(N4CC[C@](C)(NC5CCC5)C4)nn3)cc2F)cnn1 (single isomer, unassigned) [Compound 309, 2-{6-[3-(cyclobutylamino)-3-methylpyrrolidin-1-yl]pyridazin-3-yl}-4-fluoro-5-(6-methoxypyridazin-4-yl)phenol]	1000 to 10000 nM	5.00 to 6.00	5.00 to 6.00	100 to 1000 nM	> 7.00	> 7.00	> 7.00	6.00 to 7.00								
COc1cc(-c2ccc(-c3ccc(N4CC[C@@H](NCC5CC5)C4)nn3)c(O)c2)cnn1 [Compound 288]	100 to 1000 nM	6.00 to 7.00	6.00 to 7.00	100 to 1000 nM	> 7.00	> 7.00	> 7.00	6.00 to 7.00								
COc1cc(-c2ccc(-c3cc(C#N)c(N4CC[C@H](NC5CCC5)C4)nn3)c(O)c2)cnn1 [Compound 343, 3-[(3S)-3-(cyclobutylamino)pyrrolidin-1-yl]-6-[2-hydroxy-4-(6-methoxypyridazin-4-yl)phenyl]pyridazine-4-carbonitrile]	> 10000 nM	< 5.00	< 5.00	1000 to 10000 nM	6.00 to 7.00	6.00 to 7.00	6.00 to 7.00	5.00 to 6.00								
Cc1nc(C#N)c(-c2cc(O)c(-c3ccc(N4CC[C@@H](NC5CCC5)C4)nn3)cc2F)s1 [Compound 428]	100 to 1000 nM	6.00 to 7.00	6.00 to 7.00	100 to 1000 nM	6.00 to 7.00	6.00 to 7.00	> 7.00	6.00 to 7.00								
